One data set deals with human B1 receptor. The conditions noted are these: cited from earlier work. From the text:
In the plasminogen sequence, the residue 330 is not proximal to a physiological cleavage site or to the catalytic site: it is rather located within a potential adhesion site in the kringle 3 domain of the molecule ([5]). However, the K330E variant is associated with a distinct N-glysosylation pattern and an increased susceptibility to activation by urokinase-type plasminogen activator (uPA), but not by tPA (assessed only using a chromogenic substrate) ([41]). […] If uP ...

The nature of a further data set: in vitro. In kind it is in vitro ADME. To be noted: human; for half-life at 100 nM: plasma. As to the method:
(§1) Venous blood was collected without contact with glass in plastic blood collection tubes with 0.11 M sodium citrate (BD Vacutainer Plus, BD Biosciences, Franklin Lake, NJ); the plasma was obtained by centrifugation (1,300 g, 20 min, room temperature), stored at −80°C until use and/or expedition on dry ice to Quebec City. The in vitro activation of plasma at 37°C (200 μl per experimental point sample) was performed precisely as described ([21]) in the presence of enalaprilat (final concentration 130 nM) to reduce the breakdown of BK. The samples were incubated for up to 120 min under rotary agitation (300 rpm) without any added stimulant or with recombinant human tissue kallikrein (KLK-1, 10 nM; gift from DiaMedica, Inc.), with the particulate contact system activator Pacific Hemostasis Kontact-APTT™ (2% v/v; used without the calcium supplement; composed mainly of magnesium aluminum silica and rabbit brain phospholipid; ThermoFisher Scientific) or with recombinant tissue plasminogen activator (tPA, 169 nM; Cathflo, Roche). The tPA concentration was reproduced from Molinaro et al. ([19]) and within the range reached in plasma during therapeutic fibrinolysis. Biotechnological inhibitors used in the mechanistic analysis of iBK formation were previously exploited ([20], [21]) and are listed in Table 2.
An additional set of experiments aimed at measuring the rate of BK breakdown in the presence or absence of the ACE inhibitor enalaprilat or in plasma from selected human subjects: synthetic BK (100 nM) was added to 200 μl of plasma from healthy volunteers or HAE-nC1-INH patients and incubated at 37°C under agitation for 0–20 min.
In all experiments dealing with BK EIA, the reactions were stopped by adding 1 ml of cold ethanol, as described ([21]). After further incubation on ice-water for an additional period of at least 60 min, the plasma/ethanol mixtures were cleared of precipitated proteins by centrifugation (13,000 g, 1 min), evaporated to dryness (Speed Vac apparatus) and stored at −80°C until used for BK determination. Then, the samples were reconstituted with 200 μl of distilled water, further diluted 100-fold (1,000-fold for selected samples) with the supplied EIA buffer and directly applied in duplicate to the BK EIA as recommended by the manufacturer (Phoenix Pharmaceuticals, Burlingame, CA; cat. no. EK-009-01; 96-well plate format). The BK EIA is fully cross-reactive with Lys-BK, but not at all with des-Arg^9-BK or Lys-des-Arg^9-BK.
Numerical values are reported as means ± standard errors of the mean (S.E.M.). Sets of values were compared with Kruskall-Wallis test (non-parametric ANOVA) followed by Dunn's multiple comparison test to compare selected pairs of values. Pairs of values were compared using Mann-Whitney test (Prism 5.0, GraphPad Software Inc., San Diego, CA). The half-life (t1/2) of iBK was calculated as the first order decay procedure in a software suite ([30]).

For data set [1] the following is noted: cited from earlier work. An excerpt:
ACE blockade greatly increases BK persistence and pharmacological effect in human whole blood under a variety of in vitro stimulation conditions ([20]). Membrane-bound ACE produced by vascular endothelial cells is shed in an apparently regulated manner into blood plasma ([34]), allowing the use of blood/plasma/serum to monitor ACE activity in human subjects.

Data set [2] has as its system angiotensin converting enzyme (ACE). Briefly: Effect of oral enalapril maleate on ex vivo BK half-life in plasma of healthy volunteers. Further details: species or system human. To be noted: 2 daily oral doses of enalapril maleate 10 mg, healthy volunteers (two), plasma 24 h after the last dose vs before dosing.
Protocol: Numerical values are reported as means ± standard errors of the mean (S.E.M.). […] The half-life (t1/2) of iBK was calculated as the first order decay procedure in a software suite ([30]).
The nature of data set [3]: Blood pressure of healthy volunteers taking enalapril maleate. It counts as in vivo, human. The conditions noted are these: two normotensive healthy volunteers, 2 daily doses of enalapril maleate 10 mg (Figure S1). As to the method:
We previously reported that iBK formation was negligible in either whole blood or plasma incubated at 37°C without stimulus both in healthy donors and HAE patients sampled during remission (HAE-C1-INH type I or II) ([20], [21]). This may be paradoxical because HK is spontaneously and progressively cleaved in the blood of patients with HAE-C1-INH ([15], [16]) or HAE-nC1-INH ([17]). A possible explanation is the efficient clearance of kinins.

The next data set concerns human B2 receptor. To be noted: cited from earlier work.
For data set [4], the system named is iBK generation induced by tPA. Briefly: tPA-induced iBK generation in plasma from HAE-FXII (T328K) patients, effect of biotechnological inhibitors. In kind it is biochemical, human. The conditions noted are these: tPA 169 nM, 20 min incubation, enalaprilat 130 nM present, inhibitor added 5 min before stimulus, 37°C, EIA. As to the method:
as §1, with “2. […]” for “2.”

Data set [5] relates to iBK generation induced by Kontact-APTT. Briefly: Kontact-APTT-induced iBK generation in plasma from HAE-FXII (T328K) patients, effect of biotechnological inhibitors. It counts as biochemical, human. To be noted: Kontact-APTT 2% v/v, 5 min incubation, enalaprilat 130 nM present, inhibitor added 5 min before stimulus, 37°C, EIA. The protocol:
as §1, with “2. […]” for “2.”

The subject of data set [6] is KLK-1-induced iBK formation. Briefly: KLK-1-induced iBK formation in plasma from HAE-PLG patients, effect of lanadelumab. In kind it is biochemical, human. The conditions noted are these: KLK-1 10 nM, 5 min incubation, inhibitor added 5 min before KLK-1, enalaprilat 130 nM present, EIA. As to the method: as §1, with “2. […]” for “2.”

“And” between values parts separate entries of the source, which are not always exact repeats. Identical values can stand only once. “Also recorded” adds a separate entry of the source. Counter-ions that a name gives are not always drawn. Residues, ends and D or L forms follow the SMILES beside them.

With Lys-des-Arg^9-BK, the “agonist status at the human B1 receptor” value in the data set on human B1 receptor was “optimal agonist”.
For `NC(N)=NCCC[C@H](NC(=O)[C@H](Cc1ccccc1)NC(=O)[C@@H]1CCCN1C(=O)[C@H](CO)NC(=O)[C@H](Cc1ccccc1)NC(=O)CNC(=O)[C@@H]1CCCN1C(=O)[C@@H]1CCCN1C(=O)[C@@H](N)CCCN=C(N)N)C(=O)O` [BK, Bradykinin] (H-RPPGFSPFR-OH), the half-life at 100 nM in the data set “in vitro” (female, BK t1/2 in plasma of family d (HAE-nC1-INH, unknown cause)) is 22.5 s; in the data set “in vitro” (BK t1/2 in plasma 24 h after 2nd oral dose of enalapril maleate), 190 s; in “in vitro” (BK t1/2 in plasma before dosing (baseline)), 39.5 s; in the data set “in vitro” (half-life (t1/2) of BK in normal plasma), 34 s; in the data set “in vitro” (half-life (t1/2) of BK in plasma with ACE blocked by enalaprilat), 426 s. Also, the “half-life (t1/2) of BK in normal plasma” value in the data set “in vitro” is given as 33 s. Also, the “t1/2 of BK in serum” value in data set [1] is listed as 27 s.
As for des-Arg^9-BK, the “change of half-life of synthetic des-Arg9-BK when ACE is blocked” value in data set [1] was “doubled”. The “affinity for the human form of the B1 receptor” value in the data set on human B1 receptor is given as “low affinity”.
For the molecule `CCOC(=O)[C@H](CCc1ccccc1)N[C@@H](C)C(=O)N1CCC[C@H]1C(=O)O` [enalapril maleate], the “fold increase of BK t1/2 in plasma after oral dosing” value in data set [2] was ~ 5 fold and 4.8 fold. Also, the “blood pressure change during the experiment” value in data set [3] is “slight reversible drop”.
In the case of “Lys-BK: kinin formed by KLK-1 mainly from low molecular weight kininogen; direct B2 receptor agonist”, the “potency relative to BK at the human B2 receptor” value in the data set on human B2 receptor is “approximately equipotent”.

B1: lanadelumab: Human monoclonal antibody, target plasma kallikrein (antibody, chains of the INN, looked up, V domains shown)
VH: EVQLLESGGGLVQPGGSLRLSCAASGFTFSHYIMMWVRQAPGKGLEWVSGIYSSGGITVYADSVKGRFTISRDNSKNTLYLQMNSLRAEDTAVYYCAYRRIGVPRRDEFDIWGQGTMVTVSS
VL: DIQMTQSPSTLSASVGDRVTITCRASQSISSWLAWYQQKPGKAPKLLIYKASTLESGVPSRFSGSGSGTEFTLTISSLQPDDFATYYCQQYNTYWTFGQGTKVEIK
Turning to B1, the “effect on early iBK release induced by tPA” value in [4] was “significantly decreased; also recorded: suppressed”. Further, the “effect on early iBK response to Kontact-APTT” value in data set [5] is “significantly decreased”. Moreover, the “effect on KLK-1-induced iBK formation” value in data set [6] is given as “not decreased; also recorded: Lack of effect; also recorded: did not inhibit”.

As usually defined, the half-life is how long it takes for the measured level to halve.

(Values after publication PMC7380097, “Measurement of Bradykinin Formation and Degradation in Blood Plasma: Relevance for Acquired Angioedema Associated With Angiotensin Converting Enzyme Inhibition and for Hereditary Angioedema Due to Factor XII or Plasminogen Gene Variants” (Frontiers in Medicine, 2020).)
